# Source: article PMC5417501, “Occurrence of urea-based soluble epoxide hydrolase inhibitors from the plants in the order Brassicales” (PLoS ONE, 2017)
# Values joined by “and” are separate entries in the source; they are usually repeats but may differ in a detail not shown here. Equal entries are not always repeated. “Also recorded” adds a separate entry of the source. Where two headings read alike, the source gives them in different places.
# Columns and labels:
# [1] = Overnight incubation of thiourea in water at room temperature without papaya seed; format: physicochemical; settings: 10 μM in water
# rat sEH [2] = biological target: T1, rat sEH (Rattus norvegicus, UniProt P80299); assay: sEH inhibition by fluorescent assay (CMNPC assay), rat enzyme; format: biochemical; settings: for IC50: CMNPC substrate, recombinant enzyme
# T1 construct: made in house; host or cells: insect High Five cells (recombinant baculovirus)
# T1 sequence (P80299 1-554): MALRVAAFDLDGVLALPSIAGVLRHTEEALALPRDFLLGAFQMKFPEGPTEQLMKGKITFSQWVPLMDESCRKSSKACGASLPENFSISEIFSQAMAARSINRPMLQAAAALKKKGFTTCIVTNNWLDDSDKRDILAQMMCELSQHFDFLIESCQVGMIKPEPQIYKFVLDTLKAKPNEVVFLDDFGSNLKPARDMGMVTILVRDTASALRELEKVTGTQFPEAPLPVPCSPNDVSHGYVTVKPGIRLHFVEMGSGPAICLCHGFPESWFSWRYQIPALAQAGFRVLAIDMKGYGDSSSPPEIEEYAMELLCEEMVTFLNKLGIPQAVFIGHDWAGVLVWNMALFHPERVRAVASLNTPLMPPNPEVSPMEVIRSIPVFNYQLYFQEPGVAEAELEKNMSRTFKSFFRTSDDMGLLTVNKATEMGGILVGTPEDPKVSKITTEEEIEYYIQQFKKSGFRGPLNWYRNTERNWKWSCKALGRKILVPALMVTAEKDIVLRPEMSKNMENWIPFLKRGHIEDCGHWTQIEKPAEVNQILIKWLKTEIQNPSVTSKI
# Description: (§1) Recombinant sEH was produced in insect High Five cells using recombinant baculovirus expression vectors, and purified by affinity chromatography as reported previously. The enzyme appeared as a single band (0.3 μg loading) with an estimated purity of more than 95% by Coomassie Brilliant Blue staining following SDS-PAGE separation. The final recombinant sEH preparations had no esterase or glutathione S-transferase activities, which interfere with the CMNPC assay as described below.
# (§2) IC50 values were determined as described previously using cyano (2-methoxynaphthalen-6-yl) methyl trans-(3-phenyl-oxyran-2-yl) methyl carbonate (CMNPC) as a fluorescent substrate. Recombinant sEH (0.96 nM) was incubated with inhibitors for 5 min in 25 mM bis-Tris/HCl buffer (pH 7.0) containing 0.1 mg/mL of BSA at 30°C prior to substrate introduction ([S] = 5 μM). Activity was measured by determining the appearance of the 6-methoxy-2-naphthaldehyde with an excitation wavelength of 330 nm and an emission wavelength of 465 nm for 10 min.
# human sEH = biological target: T2, human sEH (Homo sapiens, UniProt P34913); assay: sEH inhibition by fluorescent assay (CMNPC assay), human enzyme; format: biochemical
# T2 construct: made in house; host or cells: insect High Five cells (recombinant baculovirus)
# T2 sequence (P34913 1-555): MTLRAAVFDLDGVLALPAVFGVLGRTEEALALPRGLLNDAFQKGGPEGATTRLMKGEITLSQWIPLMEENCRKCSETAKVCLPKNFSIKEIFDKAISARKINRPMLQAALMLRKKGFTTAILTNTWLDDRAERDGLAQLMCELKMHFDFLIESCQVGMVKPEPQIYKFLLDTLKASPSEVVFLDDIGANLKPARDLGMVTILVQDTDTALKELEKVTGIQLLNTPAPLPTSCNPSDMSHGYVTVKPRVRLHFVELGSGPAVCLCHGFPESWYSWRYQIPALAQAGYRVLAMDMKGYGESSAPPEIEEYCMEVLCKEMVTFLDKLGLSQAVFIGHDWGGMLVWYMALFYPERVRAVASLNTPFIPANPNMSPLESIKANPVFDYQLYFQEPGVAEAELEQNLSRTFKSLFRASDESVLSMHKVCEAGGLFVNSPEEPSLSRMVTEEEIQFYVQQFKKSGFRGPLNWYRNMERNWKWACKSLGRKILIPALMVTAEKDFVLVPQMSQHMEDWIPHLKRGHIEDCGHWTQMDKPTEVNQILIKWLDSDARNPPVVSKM
# Description: as §1, §2
# Solubility = format: physicochemical
# [3] = system: carrageenan-induced inflammatory pain; assay: Nociceptive assay, carrageenan-induced inflammatory pain model, topical application; format: in vivo; settings: rat, 6 mg/paw in PEG400/Vanicream, monitored 4 h, p ≤ 0.001
# Description: (§3) Male Sprague-Dawley rats weighing 225–250 g were obtained from Charles River Laboratories and maintained in the UC Davis animal housing facility with ad libitum water and food on a 12 h/12 h light-dark cycle. Behavioral nociceptive testing was conducted by assessing mechanical withdrawal threshold using an electronic von Frey anesthesiometer apparatus (IITC, Woodland Hills, CA) as described previously. The analgesic effect of compound 3 was tested using the intraplantar carrageenan-induced local inflammatory pain model. Following baseline measurements, carrageenan (50 μL, 1% solution of carrageenan in ddH2O) was administered into the plantar area of one hind paw. At 4 h post administration of carrageenan, responses were measured, and immediately after these measurement, 3 (3% in PEG400/Vanicream™ (Pharmaceutical Specialties, Inc. Rochester, MN) = 3:7, 6 mg of compound/paw), the synthetic sEH inhibitor triclocarban (TCC, 3%), or the vehicle (200 μL of PEG400/Vanicream™) was administered onto the inflamed paw by topical application. The cream was thoroughly massaged across the entire hind paw surface over a 1–2 min period. Subsequently, the ability of these treatments to reduce the carrageenan-induced inflammatory pain was monitored over the course of 4 h.
# Data were analyzed using SigmaPlot 11.0 for Windows (Systat Software Inc., San Jose, CA). […]
# [4] = Blood concentration during the pain assay after dermal treatment; format: in vivo; settings: rat; for Concentration of demethoxy metabolite: after dermal treatment of compound 3 (6 mg/paw)
# Description: as §3
# (§4) Pharmacokinetic profiles of the inhibitors were determined by following the procedure described previously in literature with some modifications. Male Swiss Webster mice (7 weeks old, 24–30 g) were purchased from Charles River Laboratories. Inhibitors were dissolved in polyethylene glycol (average molecular weight: 300) to give a clear solution for oral administration. […] Blood (10 μL) was collected from the tail vein using a pipet tip rinsed with EDTA. The blood samples were prepared according to the methods detailed previously, and blood samples were analyzed by LC-MS/MS.
# [5] = Pharmacokinetics after oral gavage (cassette dosing); format: in vivo; settings: mice; for oral availability, comparison: gavage, compound 3 and AEPU 10 mg/kg, TPPU 0.3 mg/kg; for blood level of demethoxy metabolite after oral compound 3: compound 3 10 mg/kg oral, LOQ < 9.8 nM in blood
# Description: as §4
# [6] = system: carrageenan-induced inflammatory pain; assay: Carrageenan-induced inflammatory pain model, intraplantar administration; format: in vivo; settings: rat, 10 µg/paw, p<0.05 vs. vehicle
# Description: S8 Fig. Intraplantar administration of compound 3 effectively reduces carrageenan-induced inflammatory pain in rat. Administration of the inflammatory agent carrageenan (CAR) induces a stable hyperalgesic response for the duration of the experiment. Treatment with 3 (▲, 10 µg/paw, intraplantar), morphine (●, 10 µg/paw, intraplantar) or the potent synthetic sEH inhibitor (1-(1-(Cyclopropanecarbonyl) piperidin-4-yl)-3-(4- […]
# pain levels (Kruskal-Wallis One Way ANOVA on Ranks, p≤0.001, Tukey’s post hoc test (compound 3 vs. vehicle, morphine vs. vehicle, TPCU vs. vehicle, p<0.05). Mean ± SE (n=6) of mechanical withdrawal threshold (% of naïve baseline) are shown. Vehicle (○), morphine (●), and TPCU (△) treatment data are from Rose et al., (2010).
# (1 picture or pasted object on this page, not shown here)
# [7] = value marked with footnote c, text of footnote not shown; cited from earlier work
# rat sEH [8] = biological target: T1, rat sEH; design: method as in PMID 21381656; settings: value marked with footnote e; cited from earlier work
# [9] = system: carrageenan-induced inflammatory pain; design: method as in Rose et al., (2010); settings: rat, intraplantar, morphine 10 µg/paw, TPCU 10 ng/paw; ref Rose et al., (2010); cited from earlier work
# [10] = CMNPC substrate, recombinant enzyme, read-out: Human sEH IC50
# [11] = S2 Table, unit inferred, read-out: hsEH IC50
structure (smiles),measurement,setting,value
"S=C(NCc1ccccc1)NCc1ccccc1 [1,3-dibenzylthiourea]",converted into compound 1,[1],Approximately 10%
"COc1ccc(CNC(=O)NCc2ccccc2)cc1 [BMU, reference compound]",IC50,rat sEH [2],182 nM
"O=C(NCc1ccccc1)NCc1ccccc1 [Compound 1, 1,3-Dibenzylurea]",IC50,rat sEH [2],385 nM
"COc1cccc(CNC(=O)NCc2ccccc2)c1 [Compound 2, 1-Benzyl-3-(3-methoxybenzyl) urea]",lower potency on human sEH than compound 3,human sEH,approximately 2 fold
same,IC50,human sEH; [10],534 nM
same,IC50,rat sEH [2],308 nM
"COc1cccc(CNC(=O)NCc2cccc(OC)c2)c1 [Compound 3, 1,3-Bis (3-methoxybenzyl) urea]",IC50,human sEH; [10],222 nM and ~200 nM
same,less potent than MMU,human sEH; human sEH,approximately 2 fold
same,IC50,rat sEH [2],155 nM
same,solubility higher than MMU,Solubility,approximately 10 fold
same,carrageenan induced inflammatory pain (mechanical withdrawal threshold),[3],significantly reduced carrageenan induced inflammatory pain; also recorded: significantly reduced pain levels
same,concentration at 4 h,"[4]; male, Sprague-Dawley, whole blood, topical, dermal 6 mg/paw, after 4 hours",> 3000 nM
same,blood concentration at peak,"[4]; dermal 6 mg/paw, at 30 min",higher than 40 μM
same,permeability through skin,"[4]; dermal 6 mg/paw, concluded from blood concentration",high permeability through skin
same,absorption following oral administration,[5]; 10 mg/kg by gavage in PEG300,rapidly absorbed
same,"oral availability, comparison",[5],higher than that of AEPU
same,portion of compound 3 metabolized into compound 6,"[5]; oral 10 mg/kg, based on area under the curve values",approximately 66%
same,carrageenan-induced inflammatory pain (mechanical withdrawal threshold),[6],significantly reduced
"COc1cccc(CNC(=O)NCc2cccc(O)c2)c1 [Compound 6, 1-(3-Hydroxybenzyl)-3-(3-methoxybenzyl) urea]",IC50,human sEH; read-out: human sEH IC50,1300 nM
same,IC50,rat sEH [2],1300 nM
same,Concentration of demethoxy metabolite,[4],below 200 nM
same,blood level of demethoxy metabolite after oral compound 3,[5],detected at similar concentrations to compound 3
"O=C(NCc1cccc(O)c1)NCc1cccc(O)c1 [Compound 7, 1,3-Bis(3-hydroxybenzyl)urea]",IC50,human sEH; [11],2700 nM
same,IC50,rat sEH [2],9600 nM
same,Concentration of demethoxy metabolite,[4],below 200 nM
same,blood level of demethoxy metabolite after oral compound 3,[5],not detected
"O=C(NCCc1ccccc1)NCCc1ccccc1 [Compound 8, 1,3-Diphenethylurea]",sEH inhibitory potency in words,human sEH,moderate sEH inhibitory potency
same,IC50,human sEH; [11],233 nM
same,IC50,rat sEH [2],71 nM
same,solubility,Solubility,33 ± 11 µM
"S=C(NCCc1ccccc1)NCCc1ccccc1 [Compound 9, 1,3-Diphenethylthiourea]",IC50,human sEH; [10],2400 nM
same,IC50,human sEH; [11],134 nM
same,IC50,rat sEH [2],3300 nM
"O=C(NCCc1ccccc1)NCCc1ccc(O)cc1 [Compound 10, 1-(4-Hydroxyphenethyl)-3-phenethylurea]",sEH inhibitory potency in words,human sEH,slightly higher inhibitory potency on sEH than the parent
same,IC50,human sEH; [10],134 nM
same,IC50,human sEH; [11],71.6 nM
same,IC50,rat sEH [2],129 nM
"COc1ccc(CNC(=O)NCc2ccc(OC)cc2)cc1 [MMU, reference compound]",IC50,rat sEH [2],218 nM
same,solubility,[7],11 ± 2 µM
"O=S(=O)(O)ON=C(CCc1ccccc1)SC1OC(CO)C(O)C(O)C1O (stereo not shown) [Phenethyl glucosinolate, reference compound]",IC50,human sEH; [10],> 10000 nM
same,IC50,rat sEH [2],> 10000 nM
"S=C=NCCc1ccccc1 [Phenethyl isothiocyanate, reference compound]",IC50,human sEH; [10],> 10000 nM
same,IC50,rat sEH [2],> 10000 nM
"O=C(Nc1ccc(Cl)cc1)Nc1ccc(Cl)c(Cl)c1 [TCC, triclocarban, reference compound]",more potent than compound 3 on rat sEH,rat sEH [2],approximately 6 fold
same,carrageenan induced inflammatory pain (mechanical withdrawal threshold),[3],significantly reduced carrageenan induced inflammatory pain; also recorded: significantly reduced pain levels
same,IC50,rat sEH [8],27 nM
"O=C(Nc1ccc(OC(F)(F)F)cc1)NC1CCN(C(=O)C2CC2)CC1 [TPCU, 1-(1-(Cyclopropanecarbonyl)piperidin-4-yl)-3-(4-(trifluoromethoxy)phenyl) urea]",carrageenan-induced inflammatory pain (mechanical withdrawal threshold),[9],significantly reduced
"CCC(=O)N1CCC(NC(=O)Nc2ccc(OC(F)(F)F)cc2)CC1 [TPPU, 1-trifluoromethoxyphenyl-3-(1-propionylpiperidin-4-yl) urea, reference compound]","oral availability, comparison",[5],much higher bioavailability than compound 3
CN1CC[C@]23c4c5ccc(O)c4O[C@H]2[C@@H](O)C=C[C@H]3[C@H]1C5 [morphine],carrageenan-induced inflammatory pain (mechanical withdrawal threshold),[9],significantly reduced
